Columns and labels:
Assay type in all cases: in vivo
[1] = test system: ducksalad (Heteranthera limosa); experiment: Test B flooded paddy test; conditions: Flood, 250 g ai/ha; 0 to 100 scale where 0 is no effect and 100 is complete control; 13 to 15 d
Summary of the method: (§1)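 Plants at 2-leaf stage flooded to 3 cm above soil, with compounds applied directly to paddy water and that depth maintained. Plants kept in greenhouse 13–15 d. Visual rating versus controls on a 0 (no effect) to 100 (complete control) scale.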

[2] = test system: barnyardgrass (Echinochloa crus-galli); experiment: Test B flooded paddy test; conditions: Flood, 250 g ai/ha; 0 to 100 scale where 0 is no effect and 100 is complete control; 13 to 15 d
Summary of the method: as §1

[3] = test system: sedge, umbrella (small-flower umbrella sedge, Cyperus difformis); experiment: Test B flooded paddy test; conditions: Flood, 250 g ai/ha; 0 to 100 scale where 0 is no effect and 100 is complete control; 13 to 15 d
Summary of the method: as §1

rice (Oryra sativa) = experiment: Test B flooded paddy test; conditions: Flood, 250 g ai/ha; 0 to 100 scale where 0 is no effect and 100 is complete control; 13 to 15 d
Summary of the method: as §1

[4] = test system: ryegrass, Italian (Italian ryegrass, Lolium multiflorum); experiment: Test A preemergence; conditions: Preemergence; for Plant response rating, Ryegrass, Italian: 125 g ai/ha, visual injury after approximately 10 d, 0 to 100 scale where 0 is no effect and 100 is complete control; for Ryegrass, Italian plant response rating (0 to 100 scale, 0 is no effect, 100 is complete control): 500 g ai/ha, visual injury approx. 10 d
Summary of the method: (§2)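 Preemergence directed soil spray on seeded pots, or postemergence application to plants 2–10 cm, one- to two-leaf. Solvent mixture non-phytotoxic, with surfactant. Scored ~10 d later, visually, 0–100 vs untreated.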

[5] = test system: pigweed (Amaranthus retroflexus); experiment: Test A preemergence; conditions: Preemergence; for Plant response rating, Pigweed: 125 g ai/ha, visual injury after approximately 10 d, 0 to 100 scale where 0 is no effect and 100 is complete control; for Pigweed plant response rating (0 to 100 scale, 0 is no effect, 100 is complete control): 500 g ai/ha, visual injury approx. 10 d
[6] = test system: giant foxtail (Setaria faberii); experiment: Test A preemergence; conditions: Preemergence; for Plant response rating, Foxtail, Giant: 125 g ai/ha, visual injury after approximately 10 d, 0 to 100 scale where 0 is no effect and 100 is complete control; for Foxtail, Giant plant response rating (0 to 100 scale, 0 is no effect, 100 is complete control): 500 g ai/ha, visual injury approx. 10 d
Summary of the method: as §2

Kochia (Kochia scoparia) [7] = experiment: Test A preemergence; conditions: Preemergence; for Plant response rating, Kochia: 125 g ai/ha, visual injury after approximately 10 d, 0 to 100 scale where 0 is no effect and 100 is complete control; for Kochia plant response rating (0 to 100 scale, 0 is no effect, 100 is complete control): 500 g ai/ha, visual injury approx. 10 d
Summary of the method: as §2

[8] = test system: ragweed (common ragweed, Ambrosia elatior); experiment: Test A preemergence; conditions: Preemergence; for Plant response rating, Ragweed: 125 g ai/ha, visual injury after approximately 10 d, 0 to 100 scale where 0 is no effect and 100 is complete control; for Ragweed plant response rating (0 to 100 scale, 0 is no effect, 100 is complete control): 500 g ai/ha, visual injury approx. 10 d
Summary of the method: as §2

[9] = test system: barnyardgrass (Echinochloa crus-galli); experiment: Test A preemergence; conditions: Preemergence; for Plant response rating, Barnyardgrass: 125 g ai/ha, visual injury after approximately 10 d, 0 to 100 scale where 0 is no effect and 100 is complete control; for Barnyardgrass plant response rating (0 to 100 scale, 0 is no effect, 100 is complete control): 500 g ai/ha, visual injury approx. 10 d
Summary of the method: as §2

[10] = test system: ryegrass, Italian (Italian ryegrass, Lolium multiflorum); experiment: Test A postemergence; conditions: for Ryegrass, Italian plant response rating: 125 g ai/ha, postemergence, visual injury rating on 0 to 100 scale (0 no effect, 100 complete control), approx. 10 d; for Plant response rating, Ryegrass, Italian: Postemergence, 500 g ai/ha, 0 to 100 scale where 0 is no effect and 100 is complete control
Summary of the method: as §2

[11] = test system: Galium (catchweed bedstraw, Galium aparine); experiment: Test A postemergence; conditions: for Galium plant response rating: 125 g ai/ha, postemergence, visual injury rating on 0 to 100 scale (0 no effect, 100 complete control), approx. 10 d; for Plant response rating, Galium: Postemergence, 500 g ai/ha, 0 to 100 scale where 0 is no effect and 100 is complete control
Summary of the method: as §2

[12] = test system: pigweed (Amaranthus retroflexus); experiment: Test A postemergence; conditions: for Pigweed plant response rating: 125 g ai/ha, postemergence, visual injury rating on 0 to 100 scale (0 no effect, 100 complete control), approx. 10 d; for Plant response rating, Pigweed: Postemergence, 500 g ai/ha, 0 to 100 scale where 0 is no effect and 100 is complete control
Summary of the method: as §2

[13] = test system: wheat (Triticum aestivum); experiment: Test A postemergence; conditions: for Wheat plant response rating: 125 g ai/ha, postemergence, visual injury rating on 0 to 100 scale (0 no effect, 100 complete control), approx. 10 d; for Plant response rating, Wheat: Postemergence, 500 g ai/ha, 0 to 100 scale where 0 is no effect and 100 is complete control
Summary of the method: as §2

[14] = test system: giant foxtail (Setaria faberii); experiment: Test A postemergence; conditions: for Foxtail, Giant plant response rating: 125 g ai/ha, postemergence, visual injury rating on 0 to 100 scale (0 no effect, 100 complete control), approx. 10 d; for Plant response rating, Foxtail, Giant: Postemergence, 500 g ai/ha, 0 to 100 scale where 0 is no effect and 100 is complete control
Summary of the method: as §2

Kochia (Kochia scoparia) [15] = experiment: Test A postemergence; conditions: for Kochia plant response rating: 125 g ai/ha, postemergence, visual injury rating on 0 to 100 scale (0 no effect, 100 complete control), approx. 10 d; for Plant response rating, Kochia: Postemergence, 500 g ai/ha, 0 to 100 scale where 0 is no effect and 100 is complete control
Summary of the method: as §2

[16] = test system: blackgrass (Alopecurus myosuroides); experiment: Test A postemergence; conditions: for Blackgrass plant response rating: 125 g ai/ha, postemergence, visual injury rating on 0 to 100 scale (0 no effect, 100 complete control), approx. 10 d; for Plant response rating, Blackgrass: Postemergence, 500 g ai/ha, 0 to 100 scale where 0 is no effect and 100 is complete control
Summary of the method: as §2

[17] = test system: ragweed (common ragweed, Ambrosia elatior); experiment: Test A postemergence; conditions: for Ragweed plant response rating: 125 g ai/ha, postemergence, visual injury rating on 0 to 100 scale (0 no effect, 100 complete control), approx. 10 d; for Plant response rating, Ragweed: Postemergence, 500 g ai/ha, 0 to 100 scale where 0 is no effect and 100 is complete control
Summary of the method: as §2

[18] = test system: barnyardgrass (Echinochloa crus-galli); experiment: Test A postemergence; conditions: for Barnyardgrass plant response rating: 125 g ai/ha, postemergence, visual injury rating on 0 to 100 scale (0 no effect, 100 complete control), approx. 10 d; for Plant response rating, Barnyardgrass: Postemergence, 500 g ai/ha, 0 to 100 scale where 0 is no effect and 100 is complete control
Summary of the method: as §2

corn (Zea mays) = experiment: Test A postemergence; conditions: for Corn plant response rating: 125 g ai/ha, postemergence, visual injury rating on 0 to 100 scale (0 no effect, 100 complete control), approx. 10 d; for Plant response rating, Corn: Postemergence, 500 g ai/ha, 0 to 100 scale where 0 is no effect and 100 is complete control
Summary of the method: as §2

Row | SMILES | Plant response rating, Ducksalad [1] | Plant response rating, Barnyardgrass [2] | Plant response rating, Sedge, Umbrella [3] | Plant response rating, Rice (rice (Oryra sativa)) | Plant response rating, Ryegrass, Italian [4] | Ryegrass, Italian plant response rating (0 to 100 scale, 0 is no effect, 100 is complete control) [4] | Plant response rating, Pigweed [5] | Pigweed plant response rating (0 to 100 scale, 0 is no effect, 100 is complete control) [5] | Plant response rating, Foxtail, Giant [6] | Foxtail, Giant plant response rating (0 to 100 scale, 0 is no effect, 100 is complete control) [6] | Plant response rating, Kochia (Kochia (Kochia scoparia) [7]) | Kochia plant response rating (0 to 100 scale, 0 is no effect, 100 is complete control) (Kochia (Kochia scoparia) [7]) | Plant response rating, Ragweed [8] | Ragweed plant response rating (0 to 100 scale, 0 is no effect, 100 is complete control) [8] | Plant response rating, Barnyardgrass [9] | Barnyardgrass plant response rating (0 to 100 scale, 0 is no effect, 100 is complete control) [9] | Ryegrass, Italian plant response rating [10] | Plant response rating, Ryegrass, Italian [10] | Galium plant response rating [11] | Plant response rating, Galium [11] | further results
1 | CC(=O)N1CC(c2cccc(C(F)(F)F)c2)C(C(=O)Nc2ccccc2F)C1=O (stereo not drawn) [Compound 503] | 85 | 45 | 0 | 0 | 0 | 50 | 0 | 40 | 90 | 90 | 0 | 20 | 0 | 0 | 90 | 90 | 40 | 70 | 30 | 70 | Pigweed plant response rating [12]: 0; Plant response rating, Pigweed [12]: 0; Wheat plant response rating [13]: 0; Plant response rating, Wheat [13]: 40; Foxtail, Giant plant response rating [14]: 90; Plant response rating, Foxtail, Giant [14]: 90; Kochia plant response rating (Kochia (Kochia scoparia) [15]): 0; Plant response rating, Kochia (Kochia (Kochia scoparia) [15]): 0; Blackgrass plant response rating [16]: 30; Plant response rating, Blackgrass [16]: 70; Ragweed plant response rating [17]: 30; Plant response rating, Ragweed [17]: 30; Barnyardgrass plant response rating [18]: 90; Plant response rating, Barnyardgrass [18]: 90; Corn plant response rating (corn (Zea mays)): 20; Plant response rating, Corn (corn (Zea mays)): 80
2 | O=C(Nc1ccccc1F)C1C(=O)N(CC=CBr)CC1c1cccc(C(F)(F)F)c1 (stereo not drawn) [Compound 484] | 0 | 0 | 0 | 0 | 0 | 0 | 0 | 0 | 50 | 90 | 0 | 0 | 0 | 0 | 0 | 40 | 0 | 0 | 0 | 0 | Pigweed plant response rating [12]: 0; Plant response rating, Pigweed [12]: 0; Wheat plant response rating [13]: 0; Plant response rating, Wheat [13]: 0; Foxtail, Giant plant response rating [14]: 0; Plant response rating, Foxtail, Giant [14]: 40; Kochia plant response rating (Kochia (Kochia scoparia) [15]): 0; Plant response rating, Kochia (Kochia (Kochia scoparia) [15]): 0; Blackgrass plant response rating [16]: 0; Plant response rating, Blackgrass [16]: 0; Ragweed plant response rating [17]: 0; Plant response rating, Ragweed [17]: 0; Barnyardgrass plant response rating [18]: 0; Plant response rating, Barnyardgrass [18]: 50; Corn plant response rating (corn (Zea mays)): 0; Plant response rating, Corn (corn (Zea mays)): 0
